Patent publication US20250099448A1, “HETEROCYCLIC COMPOUNDS” (Hoffmann-La Roche Inc., priority 2022, published 2025)

Molecular target: T1, MAGL protein (Homo sapiens, UniProt Q99685)
T1 sequence (Q99685 1-303): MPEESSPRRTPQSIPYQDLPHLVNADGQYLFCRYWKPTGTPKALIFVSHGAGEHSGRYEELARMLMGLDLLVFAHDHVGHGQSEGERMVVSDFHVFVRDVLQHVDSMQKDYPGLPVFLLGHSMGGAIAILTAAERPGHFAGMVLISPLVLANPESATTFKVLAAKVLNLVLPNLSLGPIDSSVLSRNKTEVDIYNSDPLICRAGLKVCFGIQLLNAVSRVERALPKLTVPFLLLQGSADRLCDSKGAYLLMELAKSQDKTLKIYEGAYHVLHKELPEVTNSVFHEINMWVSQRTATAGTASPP
Test: 2-AG assay: MAGL inhibitory activity by hydrolysis of 2-arachidonoylglycerol to arachidonic acid, followed by mass spectrometry
Type: biochemical
Conditions: 8 μM 2-arachidonoylglycerol, 15 min preincubation, 30 min reaction at RT, RapidFire MS readout
Method in brief: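 MAGL was preincubated 15 min at RT with compound (12.5 to […], 3-fold steps) in 50 mM TRIS, 1 mM EDTA, 0.01% Tween-20, 2.5% DMSO. The reaction ran 30 min at RT with 8 μM 2-AG. Arachidonic acid was quantified by RapidFire SPE-MS/MS against a d8-arachidonic acid internal standard.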

In the case of `CC(C)(C)Cc1nnc(C23CC(C4CN(C(=O)N5CC6(CC(c7nc(C8(F)CC8)n[nH]7)C6)C5)C4)(C2)C3)s1` [compound 492], the IC50 is reported as 3.84 nM.

Compound `N#Cc1cc(C(F)(F)F)ncc1C[C@H]1CCC2(C1)CN(C(=O)N1CC3(CC(c4nnc(C5CC5)[nH]4)C3)C1)C2` [compound 611] has an IC50 of 0.68 nM.

`N=S(=O)(c1ccc(C2CN(C(=O)N3CC4(CC(c5nc(C6(O)CC6)n[nH]5)C4)C3)C2)cc1)C(F)(F)F` (stereo not drawn) [compound 697] showed an IC50 of 2.65 nM.

With `O=C(N1CC2(CC(c3nc(C4CC4)n[nH]3)C2)C1)N1CC2(CN(Cc3nc(C4(C(F)(F)F)CC4)no3)C2)C1` [compound 959] the IC50 was 7.44 nM.

For `O=C(N1CC2(CC(c3nc(C4(O)CC4)n[nH]3)C2)C1)N1CC2(CC[C@@H](Cc3cccc(S(=O)(=O)C(F)(F)F)c3)C2)C1` [compound 726], the IC50 was 0.1 nM.

`O=C(N1CC2(CC(c3nnc(C4CC4)[nH]3)C2)C1)N1CC2(C1)CN(S(=O)(=O)c1ccc(F)cc1F)C2` [compound 105] gave an IC50 of 21.3 nM.

`O=C(N1CC2(CC(c3nnc(C4CC4)[nH]3)C2)C1)N1CC2(C1)CN(S(=O)(=O)C13CC(C(F)(F)F)(C1)C3)C2` [compound 135] showed an IC50 of 25.3 nM.

`O=C(N1CC2(CC(Cc3cncc(C(F)(F)F)c3)C2)C1)N1CC2(CC(c3nnc(C4CC4)[nH]3)C2)C1` [compound 114] was tested, and the IC50 was 0.22 nM.

`N=S(=O)(c1cc(F)cc(CC2CC3(C2)CN(C(=O)N2CC4(CC(c5nc(C6CC6)n[nH]5)C4)C2)C3)c1)C(F)(F)F` (stereo not drawn) [compound 649] showed an IC50 of 0.12 nM.

With `O=C(N1CC2(CC(Oc3ccc(C(F)(F)F)nc3)C2)C1)N1CC2(CC(c3nnc(C4(O)CC4)[nH]3)C2)C1` [compound 132] the IC50 was 5.98 nM.

`N#Cc1ncc(CC2CC3(C2)CN(C(=O)N2CC4(CC(c5nnc(C6CC6)[nH]5)C4)C2)C3)cc1C(F)(F)F` [compound 535] gave an IC50 of 0.65 nM.

Work on `CNC(=O)c1ccccc1CN1CC2(C1)CN(C(=O)N1CC3(CC(c4nnc(C5CC5)[nH]4)C3)C1)C2` [compound 173] yielded an IC50 of 230 nM.

Work on `O=C(N1CC2(CC(c3nc(C4CC4)n[nH]3)C2)C1)N1CC2(CN(Cc3nc[nH]c3C(F)(F)F)C2)C1` [compound 795] yielded an IC50 of 33.3 nM.

Work on `O=C(N1CC2(CC(c3nnc(C4CC4)[nH]3)C2)C1)N1CC2(C1)CN(S(=O)(=O)c1ccc(F)cc1C(F)(F)F)C2` [compound 98] yielded an IC50 of 1.92 nM.

For `Cc1cc(C(F)F)nn1CC1CC2(C1)CN(C(=O)N1CC3(CC(c4nc(C5CC5)n[nH]4)C3)C1)C2` [compound 818], the IC50 was 0.59 nM.

`O=C(N1CC2(CC(c3nnc(C4CC4)[nH]3)C2)C1)N1CC2(C1)CN(S(=O)(=O)NCc1ccc(F)cc1)C2` [compound 214] showed an IC50 of 19.9 nM.

Compound `O=C(N1CC2(CC(c3nc(C4CC4)n[nH]3)C2)C1)N1CC2(CN(Cc3nc(C4CC4)ns3)C2)C1` [compound 637] has an IC50 of 7.44 nM.

In the case of `O=C(N1CC(OCC2CCC(F)(F)CC2)C1)N1CC2(CC(c3nnc(C4CC4)[nH]3)C2)C1` [compound 326], the IC50 is reported as 22.8 nM.

`CS(=O)(=O)c1cc(CC2CC3(C2)CN(C(=O)N2CC4(CC(c5nnc(C6(O)CC6)[nH]5)C4)C2)C3)ccc1C(F)(F)F` [compound 42] gave an IC50 of 0.88 nM.

`O=C(N1CC2(CC(Oc3ccc(C(F)(F)F)nn3)C2)C1)N1CC2(CC(c3nnc(C4CC4)[nH]3)C2)C1` [compound 78] was tested, and the IC50 was 3.92 nM.

`O=C(N1CC2(CC(Cc3nccc(C(F)(F)F)n3)C2)C1)N1CC2(CC(c3nc(C4CC4)n[nH]3)C2)C1` [compound 403] showed an IC50 of 0.75 nM.

In the case of `O=C(N1CC2(CC(Cn3nccc3C3CC3)C2)C1)N1CC2(CC(c3nc(C4CC4)n[nH]3)C2)C1` [compound 973], the IC50 is reported as 0.27 nM.

Compound `N#CC1(c2ccc(C3CN(C(=O)N4CC5(CC(c6nnc(C7CC7)[nH]6)C5)C4)C3)cc2)CC1` [compound 376] has an IC50 of 2.22 nM.

With `O=C(N1CC2(CC(Oc3cnc(C(F)(F)F)cn3)C2)C1)N1CC2(CC(c3nnc(C4CC4)[nH]3)C2)C1` [compound 75] the IC50 was 5.55 nM.

`O=C(N1CC2(CC(Oc3ccc(F)cn3)C2)C1)N1CC2(CC(c3nc(C4CC4)n[nH]3)C2)C1` [compound 434] was tested, and the IC50 was 5.52 nM.

With `O=C(N1CC2(CCC(Cc3ncc(F)cc3F)C2)C1)N1CC2(CC(c3nnc(C4CC4)[nH]3)C2)C1` (single isomer, unassigned) [compound 149] the IC50 was 0.39 nM.

Compound `O=C(N1CC2(CCC(Cc3nnc(C(F)(F)F)[nH]3)CC2)C1)N1CC2(CC(c3nc(C4CC4)n[nH]3)C2)C1` [compound 436] has an IC50 of 32.3 nM.

`CS(=O)(=O)c1ccccc1C12CC(C3CN(C(=O)N4CC5(CC(c6nc(C7CC7)n[nH]6)C5)C4)C3)(C1)C2` [compound 909] gave an IC50 of 0.51 nM.

Compound `O=C(N1CC(OCc2cccc(S(=O)(=O)C(F)(F)F)c2)C1)N1CC2(CC(c3nnc(C4CC4)[nH]3)C2)C1` [compound 321] has an IC50 of 10.8 nM.

Compound `O=C(N1CC2(CC(c3nc(C4CC4)n[nH]3)C2)C1)N1CC2(CN(Cc3ccnn3CC(F)(F)F)C2)C1` [compound 717] has an IC50 of 83.8 nM.

In the case of `O=C(N1CC2(CC(c3nc(C4CC4)n[nH]3)C2)C1)N1CC2(CC(n3cnc(O)n3)C2)C1` [Example 648, [6-(3-cyclopropyl-1H-1,2,4-triazol-5-yl)-2-azaspiro[3.3]heptan-2-yl]-[6-(3-hydroxy-1,2,4-triazol-1-yl)-2-azaspiro[3.3]heptan-2-yl]methanone], the IC50 is reported as 1500 nM.

`Cn1ncc(C(F)(F)F)c1CC1CC2(C1)CN(C(=O)N1CC3(CC(c4nc(C5(O)CC5)n[nH]4)C3)C1)C2` [compound 777] showed an IC50 of 1.27 nM.

`O=C(N1CC2(CC(c3nc(C4CC4)n[nH]3)C2)C1)N1CC2(CN(Cc3cc(C(F)(F)F)no3)C2)C1` [compound 672] showed an IC50 of 8.31 nM.

With `O=C(N1CC2(CC(Cc3cc(C(F)(F)F)n[nH]3)C2)C1)N1CC2(CC(c3nc(C4CC4)n[nH]3)C2)C1` [compound 404] the IC50 was 0.29 nM.

`Cn1cnc(C#N)c1CN1CC2(C1)CN(C(=O)N1CC3(CC(c4nc(C5CC5)n[nH]4)C3)C1)C2` [compound 537] was tested, and the IC50 was 237 nM.

`O=C(N1CC(OCc2cncc(C(F)(F)F)c2)C1)N1CC2(CC(c3nnc(C4CC4)[nH]3)C2)C1` [compound 329] gave an IC50 of 38.1 nM.

Compound `O=C(N1CC2(CC(c3nnc(C4CC4)[nH]3)C2)C1)N1CC2(C1)CN(c1ncc(C(F)(F)F)cn1)C2` [compound 694] has an IC50 of 236 nM.

Work on `O=C(N1CC2(CC(Cc3ccc(C(F)(F)F)nc3)C2)C1)N1CC2(CC(c3nnc(C4CCC4)[nH]3)C2)C1` [compound 7] yielded an IC50 of 3.65 nM.

Compound `O=C(N1CC(OCc2ccc(C(F)(F)F)cc2F)C1)N1CC2(CC(c3nnc([C@@H](O)C(F)(F)F)[nH]3)C2)C1` (single isomer, unassigned) [Example 388] has an IC50 of 410 nM.

`CS(=O)(=O)c1ccc(COC2CCN(C(=O)N3CC4(CC(c5n[nH]c(C6CC6)n5)C4)C3)CC2)c(Cl)c1` [Example 925, [4-(2-chloro-4-mesyl-benzyl)oxypiperidino]-[6-(5-cyclopropyl-1H-1,2,4-triazol-3-yl)-2-azaspiro[3.3]heptan-2-yl]methanone] gave an IC50 of 79.2 nM.

In the case of `NC(=O)c1ccc(CC2CC3(C2)CN(C(=O)N2CC4(CC(c5nc(C6CC6)n[nH]5)C4)C2)C3)cc1OC(F)(F)F` [compound 913], the IC50 is reported as 0.44 nM.

Work on `O=C(N1CC(c2ccc(NC3(C(F)(F)F)CC3)cc2)C1)N1CC2(CC(c3nnc(C4CC4)[nH]3)C2)C1` [compound 274] yielded an IC50 of 0.23 nM.

`O=C(N1CC2(CC(Cc3ccc(Cl)cn3)C2)C1)N1CC2(CC(c3ncn[nH]3)C2)C1` [compound 831] was tested, and the IC50 was 1220 nM.

`O=C(N1CC(C23CC(S(=O)(=O)c4ccc(C(F)(F)F)cn4)(C2)C3)C1)N1CC2(CC(c3nc(C4CC4)n[nH]3)C2)C1` [compound 807] gave an IC50 of 478 nM.

`N#Cc1ccc(CC2CC3(C2)CN(C(=O)N2CC4(CC(c5nc(C6CC(F)(F)C6)n[nH]5)C4)C2)C3)cc1C(F)(F)F` [compound 677] showed an IC50 of 13 nM.

Compound `N#Cc1ncc(CC2CC3(C2)CN(C(=O)N2CC4(CC(c5nc(C6(F)CC6)n[nH]5)C4)C2)C3)cc1C(F)(F)F` [compound 512] has an IC50 of 0.67 nM.

`O=C(N1CC2(CC(c3nc(C4CC4)n[nH]3)C2)C1)N1CC2(CN(Cc3sncc3C(F)(F)F)C2)C1` [compound 700] showed an IC50 of 2.56 nM.

With `O=C(N1CC2(CCN(S(=O)(=O)c3ccc(C(F)(F)F)cc3F)CC2)C1)N1CC2(CC(c3nnc(C4CC4)[nH]3)C2)C1` [compound 240] the IC50 was 1.27 nM.

For `O=C(N1CC(NCc2ccc(C(F)(F)F)cc2F)C1)N1CC2(CC(c3nnc(C4CCC4)[nH]3)C2)C1` [compound 206], the IC50 was 232 nM.

`N=S(=O)(c1ccc(CC2CC3(C2)CN(C(=O)N2CC4(CC(c5nc(C6(O)CC6)n[nH]5)C4)C2)C3)c(F)c1)C(F)(F)F` (stereo not drawn) [compound 715] gave an IC50 of 0.45 nM.

`CC(C)(Oc1ccc(C2CN(C(=O)N3CC4(CC(c5nnc(C6(O)CC6)[nH]5)C4)C3)C2)cc1)C(F)(F)F` [compound 368] was tested, and the IC50 was 0.17 nM.

Compound `O=C(N1CC2(CC(Cc3cnn(C(F)(F)F)c3)C2)C1)N1CC2(CC(c3nc(C4(O)CC4)n[nH]3)C2)C1` [compound 727] has an IC50 of 2.68 nM.

`O=C(N1CC2(CC(Cc3ccc(C(F)(F)F)cc3F)C2)C1)N1CC2(CC(c3nc(C4CC(F)(F)C4)n[nH]3)C2)C1` [compound 467] showed an IC50 of 0.33 nM.

Work on `COC(=O)C1(c2ccc(C3CN(C(=O)N4CC5(CC(c6nnc(C7CC7)[nH]6)C5)C4)C3)cc2)CC1` [compound 372] yielded an IC50 of 0.57 nM.

In the case of `O=C(N1CC2(CC(Cc3ccc4ncnn4c3)C2)C1)N1CC2(CC(c3nc(C4CC4)n[nH]3)C2)C1` [compound 645], the IC50 is reported as 6.54 nM.

`O=C(N1CC(C23CC(NCC4(C(F)(F)F)CC4)(C2)C3)C1)N1CC2(CC(c3nnc(C4CC4)[nH]3)C2)C1` [compound 342] showed an IC50 of 0.49 nM.

`O=C(N1CC(c2ccc(OC(F)(F)F)c(F)c2)C1)N1CC2(CC(c3nnc(C4CC4)[nH]3)C2)C1` [compound 241] was tested, and the IC50 was 0.24 nM.
